Measured values from article PMC5906549, “Cathelicidin-Derived Antimicrobial Peptides Inhibit Zika Virus Through Direct Inactivation and Interferon Pathway” (Frontiers in Immunology, 2018).
Peptide text beside a SMILES is read from it.

Tested on: ZIKV strain MR766
Experiment: ZIKV RNA at 2-h post-infection in pre-treated human fetal astrocytes (early infection / entry)
Type: cell-based, Zika virus
Settings: astrocytes treated with AMPs 2 h at 37°C, then ZIKV MOI 0.5 for 2 h; normalized to 18-s rRNA; N = 3
Method: Total mRNA was isolated with TRIzol Reagent (Thermo Fisher Scientific) and RNeasy Mini Kit (QIAGEN Inc., Valencia, CA, USA) following the manufacturer’s recommendations. Two real-time RT-PCR methods were used for the current studies. First, SYBR Green-based RT-PCR assay was used to determine intracellular ZIKV RNA in Vero cells. For this assay, reverse transcription was performed using Verso cDNA synthesis Kit (Thermo Fisher Scientific) and 1 µg of total RNA in a 15-µL final volume. The RT-PCR analyses were performed using 7.5-µL SYBR Green PCR Master Mix (Thermo Fisher Scientific) with 0.5-µL cDNA, 1.5-µL H2O, 5.5-µL oligonucleotide primer pairs at 10 µM. […] Relative ZIKV RNA levels were determined and standardized with a GAPDH internal control using comparative ΔΔCT method ([35]). […] Relative ZIKV mRNA levels were determined and standardized with a GAPDH or 18-s rRNA endogenous control using comparative ΔΔCT method ([35]). All reference genes, including GAPDH, β-actin, and 18-s rRNA, detected identical changes of genes (Figure S1 in Supplementary Material). […] Quantitative genomic RNA from ZIKV (NR-1838DQ, ATCC) was used as a standard to calculate viral copies. […]
(A) Primary human fetal astrocytes were pre-incubated at 4°C for half an hour and then treated with antimicrobial peptides along with ZIKV infection at the MOI of 0.5 for 2 h. […] ZIKV RNA was determined through real-time RT-PCR.

Compound	ZIKV RNA at 2-h post-infection compared with untreated ZIKV group
CC[C@H](C)[C@H](NC(=O)[C@H](CCCCN)NC(=O)[C@H](CCCCN)NC(=O)[C@H](Cc1ccccc1)NC(=O)[C@H](CC(C)C)NC(=O)[C@H](CCCCN)NC(=O)[C@H](CCCCN)NC(=O)[C@H](Cc1ccccc1)NC(=O)[C@H](CCCCN)NC(=O)[C@H](CCCCN)NC(=O)[C@H](CCCNC(=N)N)NC(=O)[C@H](Cc1ccccc1)NC(=O)[C@H](CCCNC(=N)N)NC(=O)[C@H](CCCCN)NC(=O)[C@H](Cc1ccccc1)NC(=O)[C@H](CCCNC(=N)N)NC(=O)CN)C(=O)N[C@@H](CO)C(=O)O [BMAP-18] (H-GRFKRFRKKFKKLFKKIS-OH; N-terminus and C-terminus assumed)	significantly decreased ZIKV RNA
CC[C@H](C)[C@H](NC(=O)[C@H](CCCNC(=N)N)NC(=O)[C@H](CCC(N)=O)NC(=O)[C@@H](NC(=O)[C@@H](NC(=O)[C@H](CCCNC(=N)N)NC(=O)[C@H](CCCCN)NC(=O)[C@H](Cc1ccccc1)NC(=O)CN)[C@@H](C)CC)C(C)C)C(=O)N[C@@H](CCCCN)C(=O)N[C@@H](CC(=O)O)C(=O)N[C@@H](Cc1ccccc1)C(=O)N[C@@H](CC(C)C)C(=O)N[C@@H](CCCNC(=N)N)C(=O)N[C@@H](CC(N)=O)C(=O)N[C@@H](CC(C)C)C(=O)N[C@H](C(N)=O)C(C)C [GF-17] (H-GFKRIVQRIKDFLRNLV-NH2; N-terminus and C-terminus assumed)	significantly decreased ZIKV RNA
